In ChEMBL document CHEMBL1201862, “PubChem BioAssay data set” (2004):
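48-hour exposure; five concentrations; linearly interpolated endpoints. Here, GI50 denotes the concentration required for 50% inhibition of growth.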 The source made the active and inactive calls. Cut-off read from the data, not from the text of the source: active = GI50 up to about 1.1 µM and inactive = higher.

Tests used:
Assay in all cases: NCI anticancer screen, dose series, 48 h
[1] = test system: OVCAR-8
[2] = test system: HCT-15
[3] = test system: M19-MEL
[4] = test system: MOLT-4
[5] = test system: OVCAR-4
[6] = test system: IGROV-1
[7] = test system: DMS-114
[8] = test system: HOP-18
[9] = test system: 786-0
[10] = test system: M14
[11] = test system: KM-20L2
[12] = test system: K562
[13] = test system: RXF 393
[14] = test system: CAKI-1
[15] = test system: SF-539
[16] = test system: UO-31
[17] = test system: NCI-H522
[18] = test system: SK-MEL-5
[19] = test system: SNB-78
[20] = test system: A549
[21] = test system: UACC-257
[22] = test system: RPMI-8226
[23] = test system: SK-OV-3
[24] = test system: SK-MEL-2
[25] = test system: HT-29
[26] = test system: A498
[27] = test system: SW-620
[28] = test system: Malme-3M
[29] = test system: KM12
[30] = test system: UACC-62
[31] = test system: SF-268
[32] = test system: NCI-H460
[33] = test system: HOP-62
[34] = test system: HOP-92
[35] = test system: ACHN
[36] = test system: COLO 205
[37] = test system: LOX IMVI
[38] = test system: CCRF-CEM
[39] = test system: SF-295
[40] = test system: SR
[41] = test system: SNB-75
[42] = test system: SN12C
[43] = test system: HCC 2998
[44] = test system: OVCAR-5
[45] = test system: HL-60
[46] = test system: DLD-1
[47] = test system: TK-10
[48] = test system: HCT-116
[49] = test system: LXFL 529
[50] = test system: SNB-19
[51] = test system: U-251
[52] = test system: DMS-273
[53] = test system: OVCAR-3
[54] = test system: SK-MEL-28
[55] = test system: NCI-H226
[56] = test system: NCI-H23

Measured: GI50

CCOC(=O)N1CCc2cc(OC)c(OC)c3c2C1CC3=O (stereo unspecified)
> 100 µM: [2]
inactive: [1] > 100 µM | [3] > 100 µM | [4] > 100 µM | [5] > 100 µM | [6] > 100 µM | [7] > 100 µM | [8] > 100 µM | [9] > 100 µM | [10] > 100 µM | [11] > 100 µM | [12] > 100 µM | [13] > 100 µM | [14] > 100 µM | [15] > 100 µM | [16] > 100 µM | [17] > 100 µM | [18] > 100 µM | [19] > 100 µM | [20] > 100 µM | [21] > 100 µM | [22] > 100 µM | [23] > 100 µM | [24] > 100 µM | [25] > 100 µM | [26] > 100 µM | [27] > 100 µM | [28] > 100 µM | [29] > 100 µM | [30] > 100 µM | [31] > 100 µM | [32] > 100 µM | [33] > 100 µM | [34] > 100 µM | [35] > 100 µM | [36] > 100 µM | [37] > 100 µM | [38] > 100 µM | [39] > 100 µM | [40] > 100 µM | [41] > 100 µM | [42] > 100 µM | [43] > 100 µM | [44] > 100 µM | [45] > 100 µM | [46] > 100 µM | [47] > 100 µM | [48] > 100 µM | [49] > 100 µM | [50] > 100 µM | [51] > 100 µM | [52] > 100 µM

COC(=O)C1[C@@H](C(=O)OC)C(=O)O[C@H]1c1cc(OC)c(OC)c(OC)c1 (stereo partly specified)
> 100 µM: [2]
inactive: [1] > 100 µM | [3] > 100 µM | [53] > 100 µM | [4] > 100 µM | [5] > 100 µM | [6] > 100 µM | [7] > 100 µM | [8] > 100 µM | [9] > 100 µM | [10] > 100 µM | [11] > 100 µM | [54] > 100 µM | [12] > 100 µM | [55] > 100 µM | [13] > 100 µM | [14] > 100 µM | [15] > 100 µM | [16] > 100 µM | [56] > 100 µM | [18] > 100 µM | [19] > 100 µM | [20] > 100 µM | [21] > 100 µM | [22] > 100 µM | [23] > 100 µM | [25] > 100 µM | [26] 48.5 µM | [27] > 100 µM | [28] > 100 µM | [29] > 100 µM | [30] > 100 µM | [31] > 100 µM | [32] > 100 µM | [33] > 100 µM | [34] > 100 µM | [35] > 100 µM | [36] > 100 µM | [37] > 100 µM | [38] > 100 µM | [39] > 100 µM | [40] > 100 µM | [41] > 100 µM | [42] > 100 µM | [43] > 100 µM | [44] > 100 µM | [45] > 100 µM | [46] > 100 µM | [47] > 100 µM | [48] > 100 µM | [49] > 100 µM | [50] > 100 µM | [51] > 100 µM | [52] > 100 µM
